According to PMC9917099, “The Mycotoxin Patulin Inhibits the Mitochondrial Carnitine/Acylcarnitine Carrier (SLC25A20) by Interaction with Cys136 Implications for Human Health” (International Journal of Molecular Sciences, 2023):
Where a chain is given by its changes, count along the chain named.

How the values were obtained:
[1] = molecular target: T1, rat CAC mutant C23V/C58V/C89S/C136V/C283S (Rattus norvegicus, UniProt P97521, C136V/C23V/C283S/C58V/C89S); test: Carnitine antiport in proteoliposomes, CAC mutant containing only C155; assay type: biochemical
T1 construct: made in house; host or cells: E. coli C0214 (pMW7, inclusion bodies)
T1 sequence (P97521 1-301 C23V/C58V/C89S/C136V/C283S): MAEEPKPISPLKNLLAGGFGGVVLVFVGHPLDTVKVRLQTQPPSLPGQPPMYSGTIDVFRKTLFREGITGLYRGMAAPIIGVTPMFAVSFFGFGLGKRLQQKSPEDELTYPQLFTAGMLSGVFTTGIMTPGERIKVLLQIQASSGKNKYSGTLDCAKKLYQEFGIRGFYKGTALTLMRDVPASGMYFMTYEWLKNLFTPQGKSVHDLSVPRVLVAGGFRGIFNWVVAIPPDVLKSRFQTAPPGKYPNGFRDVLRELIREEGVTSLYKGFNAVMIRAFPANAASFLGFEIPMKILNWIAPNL
Procedure: (§1) To shed light on the interaction between PAT and CAC and verify if specific Cys residues were involved, transport experiments on the recombinant rat and human WT CAC and CAC’s rat Cys mutants were performed. As in the case of the native protein, transport activities were measured as [^3H]-carnitine/carnitine antiport in proteoliposomes. […] The PAT inhibition of the WT recombinant protein was only slightly greater compared to the native protein, although compounds and other molecular systems that affect the mycotoxin binding to the native CAC were absent (see above). For identifying the residues involved in the PAT interaction, site-directed Cys mutants were tested for inhibition (Figure 2). […]
(§2) Figure 2 Dose-response analysis of the PAT inhibition of the CAC recombinant proteins. […] The data are expressed as a percentage of the controls (no PAT addition) and are means ± SD of three independent experiments. […]
(§3) For the transport assay, 550 μL of proteoliposomes were passed through a Sephadex G-75 column in order to remove the external substrate. […] After finishing the transport reaction, the external radiolabel substrate was removed by gel filtration chromatography (Sephadex G-75), and the intraliposomal radioactivity was measured by liquid scintillation. Transport was measured at 25 °C. […] Transport rates were measured in 10 min, i.e., within the initial linear range of the time course.

cell viability = test system: cell viability; design: method as in PMID 25098256; details: 60 µM; cited from earlier work
rat CAC mutant C155S = molecular target: T2, rat CAC mutant C155S (Rattus norvegicus, UniProt P97521, C155S); test: Carnitine antiport in proteoliposomes, CAC mutant C155S; assay type: biochemical
T2 construct: made in house; host or cells: E. coli C0214 (pMW7, inclusion bodies)
T2 sequence (P97521 1-301 C155S): T1 sequence (P97521 1-301 C23V/C58V/C89S/C136V/C283S) with V23C, V58C, S89C, V136C, C155S, S283C
Procedure: as §1, §2, §3

O=C1C=C2C(=CCOC2O)O1 (stereo not drawn) [PAT, 4-hydroxy-4H-furo [3,2c] pyran-2 [6H] -one]
IC50 [1]: not possible to detect | toxicity for cell viability (cell viability): nontoxic range | IC50 (rat CAC mutant C155S): comparable to the WT
